The source of these data is patent US8809274B2, “Adhesive hemostatic agent based on porcine atelocollagen and method for production thereof” (Dalim Biotech Co., Ltd., priority 2008, dated 2014).

This assay deals with blood. Description: Effect of tranexamic acid on blood coagulation (Example 5). It is filed as cell-based. Particulars: Experimental Condition F: 0.25 mL of 0.02/0.05/0.1 wt % tranexamic acid in distilled water alone; 0.5 mL blood. The protocol: While tranexamic acid, a hemostatic agent with antifibrinolytic activity, was used under the above-described conditions, the time taken to induce blood clots was monitored.
—Experimental Condition A • 1. 0.5 mL of blood was placed on each Petri-dish. • 2. A mixture of 0.25 mL of the solution of Example 1 and 0.25 mL of the 1 wt % calcium chloride solution containing 0.71 wt % of DOPA and 0.02 wt % of tranexamic acid was added to the Petri-dish of 1. • 3. A mixture of 0.25 mL of the solution of Example 1 and 0.25 mL of the 1 wt % calcium chloride solution containing 0.71 wt % of DOPA and 0.05 wt % of tranexamic acid was added to the Petri-dish of 1. • 4. A mixture of 0.25 mL of the solution of Example 1 and 0.25 mL of the 1 wt % calcium chloride solution containing 0.71 wt % of DOPA and 0.1 wt % of tranexamic acid was added to the Petri-dish of 1. • 5. Reactions in the Petri-dishes were observed.
—Experimental Condition B • 1. 0.5 mL of blood was placed on each Petri-dish. • 2. A mixture of 0.25 mL of the solution of Example 1 and 0.25 mL of the 1.5 wt % calcium chloride solution containing 0.67 wt % of DOPA and 0.02 wt % of tranexamic acid was added to the Petri-dish of 1. • 3. A mixture of 0.25 mL of the solution of Example 1 and 0.25 mL of the 1.5 wt % calcium chloride solution containing 0.67 wt % of DOPA and 0.05 wt % of tranexamic acid was added to the Petri-dish of 1. • 4. […]

Regarding `NC[C@H]1CC[C@H](C(=O)O)CC1` [tranexamic acid], the blood coagulation rate result is recorded as “at lower rates than when in the presence of the esterified atelocollagen”.
